Experimental data from article PMC6271731, “Multitarget Molecular Hybrids of Cinnamic Acids” (Molecules, 2014).
Marks after values point to notes of the source that are not given here.

tested on: not listed separately; assay: Inhibition of linoleic acid lipid peroxidation (AAPH); conditions: % inhibition at 100 μM; pH 7.4, 37 °C
Protocol: Production of conjugated diene hydroperoxide by oxidation of sodium linoleate in an aqueous dispersion is monitored at 234 nm. AAPH is used as a free radical initiator [12, 24]. Ten microlitres of the 16 mM sodium linoleate solution was added to the UV cuvette containing 930 μL of 0.05 M phosphate buffer, pH 7.4 prethermostated at 37 °C. The oxidation reaction was initiated at 37 °C under air by the addition of 40 mM AAPH solution (50 μL). Ten μL of the tested compounds were added in the mixture. Lipid oxidation was measured in the presence of the same level of DMSO. The rate of oxidation at 37 °C was monitored by recording the increase in absorption at 234 nm caused by conjugated diene hydroperoxides. The results were compared to the appropriate standard inhibitor trolox (63%) (Table 1).

Row | Structure (SMILES) | AAPH % (% inhibition of lipid peroxidation)
1 | Cc1cc(=O)oc2cc(O)ccc12 [Hymechromone, 4-methyl-7-hydroxycoumarin, reference compound] | 93%
2 | Cc1c(C)c2c(c(C)c1O)CCC(C)(C(=O)O)O2 (stereo not shown) [Trolox, reference compound] | 63%
3 | CC(=O)Nc1cccc(OC(=O)/C=C/c2cccc(Oc3ccccc3)c2)c1 [Compound 2e, 3-Acetamidophenyl (E)-3-(3-phenoxyphenyl)acrylate] | 60%
4 | Nc1ccc(O)cc1 [p-AP, p-aminophenol, reference compound] | 99%
5 | CCOC(=O)c1ccc(N)cc1 [Benzocaine, reference compound] | 25%
6 | CC(=O)Nc1ccc(OC(=O)/C=C/c2ccccc2)cc1 [Compound 1a, (E) 4-Acetamidophenyl cinnamate] | 95%
7 | CCOC(=O)c1ccc(NC(=O)/C=C/c2cccc(Oc3ccccc3)c2)cc1 [Compound 2h, (E)-Ethyl 4-(3-(3-phenoxyphenyl)acrylamido)benzoate] | 64%
8 | Cc1cc(=O)oc2cc(OC(=O)/C=C/c3cccc(Oc4ccccc4)c3)ccc12 [Compound 2d, (E)-4-Methyl-2-oxo-2H-chromen-7-yl 3-(3-phenoxyphenyl)acrylate] | 97%
9 | CC(=O)Nc1ccc(OC(=O)/C=C/c2ccc(OCc3ccc(Br)cc3)cc2)cc1 [Compound 3a, (E)-4-Acetamidophenyl 3-(4-((4-bromobenzyl)oxy)phenyl)acrylate] | 96%

target: T1, pancreatic bovine trypsin (Bos taurus, UniProt P00760); assay: Inhibition of trypsin induced proteolysis in vitro; type: biochemical; conditions: % inhibition at 100 μM
T1 construct: purchased Sigma Chemical, Co. (St. Louis, MO, USA)
T1 sequence (P00760 24-246): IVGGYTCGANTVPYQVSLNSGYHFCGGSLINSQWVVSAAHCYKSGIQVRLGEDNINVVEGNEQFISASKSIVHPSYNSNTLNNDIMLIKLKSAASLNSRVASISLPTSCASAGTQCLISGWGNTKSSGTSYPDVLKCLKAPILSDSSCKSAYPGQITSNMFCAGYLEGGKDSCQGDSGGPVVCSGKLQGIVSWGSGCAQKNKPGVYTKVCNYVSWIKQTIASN
Text: All chemicals, solvents, chemical and biochemical reagents were of analytical grade and purchased from commercial sources (Merck, Merck KGaA, Darmstadt, Germany, Fluka Sigma-Aldrich Laborchemikalien GmbH, Hannover, Germany, Alfa Aesar, Karlsruhe, Germany and Sigma, St. Louis, MO, USA). Soybean lipoxygenase, pancreatic bovine trypsin, sodium linoleate, free radical DPPH and 2,2-azinobis-2-methyl-propanimidamine HCl (AAPH) were obtained from Sigma Chemical, Co. (St. Louis, MO, USA), carrageenin, type K, was commercially available. All starting materials were obtained from commercial sources and used without further purification.
The test was carried out according to a modified Kunitz method. Bovine albumin was used as substrate for trypsin. The reaction mixture consisted of 0.075 mg/mL trypsin (200 μL) and 780 μL of phosphate buffer pH 7.6 (including the tested compounds (20 μL in DMSO, final concentration 100 μM) preincubated at 37 °C for 20 min and then 1 mL of albumin (stock solution 6 g/100 mL in phosphate buffer 0.1 M, pH 7.6) was added and incubated at 37 °C for 30 min. After the incubation 1 mL of 5% trichloroacetic acid was added to the incubated solution to stop the enzyme’s reaction and allowed to set at room temperature for 1 h. Then the solution was filtered by filter paper and the absorption of the filtered solution was measured at 280 nm. Salicylic acid was used as a reference compound (Table 1).

Row | Structure (SMILES) | % Trypsin Inh.
10 | Nc1ccc(O)cc1 [p-AP, p-aminophenol, reference compound] | 87%

same assay, conditions: % inhibition at 100 μM; read-out: % Trypsin Inh.

Row | inhibition at 100 µM | Structure (SMILES)
11 | 60% | Cc1cc(=O)oc2cc(O)ccc12 [Hymechromone, 4-methyl-7-hydroxycoumarin, reference compound]
12 | 28% | CCOC(=O)c1ccc(N)cc1 [Benzocaine, reference compound]
13 | 34% | CC(=O)Nc1ccc(OC(=O)/C=C/c2ccccc2)cc1 [Compound 1a, (E) 4-Acetamidophenyl cinnamate]

same assay, conditions: bovine albumin substrate, pH 7.6, 37 °C; read-out: IC50 μM Trypsin Inh.

Row | Structure (SMILES) | IC50
14 | CCOC(=O)c1ccc(NC(=O)/C=C/c2cccc(Oc3ccccc3)c2)cc1 [Compound 2h, (E)-Ethyl 4-(3-(3-phenoxyphenyl)acrylamido)benzoate] | 50 µM
15 | Cc1cc(=O)oc2cc(OC(=O)/C=C/c3cccc(Oc4ccccc4)c3)ccc12 [Compound 2d, (E)-4-Methyl-2-oxo-2H-chromen-7-yl 3-(3-phenoxyphenyl)acrylate] | 10 µM
16 | CC(=O)Nc1ccc(OC(=O)/C=C/c2ccc(OCc3ccc(Br)cc3)cc2)cc1 [Compound 3a, (E)-4-Acetamidophenyl 3-(4-((4-bromobenzyl)oxy)phenyl)acrylate] | 100 µM

tested on: acetic acid-induced writhing; assay: Antinociceptive screen (writhing test); type: in vivo, Wistar rats; conditions: 0.01 mmol/0.1 kg, i.p. 30 min before 0.6% acetic acid; writhes counted over 30 min
Protocol: Anti-inflammatory tests were conducted on Fisher-344 inbred rats of ca. 200 g body weight whereas antinociception and motor and sensory functions after sciatic nerve crash were performed on Wistar rats. Both sexes were used. Females pregnant were excluded. Each group was composed of 6 animals. The animals, which have been bred in our laboratory, were housed under standard conditions and received a diet of commercial food pellets and water ad libitum during the maintenance. Our studies were carried out in accordance with recognised guidelines on animal experimentation.
[…] Controls received the liquid vehicle only. All the in vivo experiments were repeated at least in triplicate and were subjected to statistic analysis using the student’s t-test.
The writhing reflex was used. The test compounds were administered i.p. 30 min prior to the i.p. administration of 1 mL/100 g body weight of 0.6% acetic acid. […] After 5 min, the number of stretches characterized by repeated contractions of the abdominal musculature accompanied by extension of the hind limbs was counted every 5 min for the next 30 min. […] The % antinociceptive activity (a:a) was calculated as: % a:a = (n − n'/n) × 100 (a: a analgesic activity, n average number of writhes of control group, n' average number in the test group).

Row | Structure (SMILES) | % ANA (in vivo analgesic-antinociceptive activity)
17 | CC(=O)Nc1cccc(OC(=O)/C=C/c2cccc(Oc3ccccc3)c2)c1 [Compound 2e, 3-Acetamidophenyl (E)-3-(3-phenoxyphenyl)acrylate] | 98.1 ** %

same assay, conditions: Rattus norvegicus, ip, 0.5 h, i.p. 30 min before 0.6% acetic acid, writhes counted over 30 min, read-out: % ANA (in vivo analgesic-antinociceptive activity)

Row | Structure (SMILES) | inhibition in vivo at 0.01 mmol/0.1 kg
18 | CC(=O)Nc1cccc(OC(=O)/C=C/c2cccc(Oc3ccccc3)c2)c1 [Compound 2e, 3-Acetamidophenyl (E)-3-(3-phenoxyphenyl)acrylate] | 98.1%
19 | CC(=O)Nc1ccc(OC(=O)/C=C/c2ccccc2)cc1 [Compound 1a, (E) 4-Acetamidophenyl cinnamate] | 77.3%
20 | Cc1cc(=O)oc2cc(OC(=O)/C=C/c3cccc(Oc4ccccc4)c3)ccc12 [Compound 2d, (E)-4-Methyl-2-oxo-2H-chromen-7-yl 3-(3-phenoxyphenyl)acrylate] | 66%
21 | CC(=O)Nc1ccc(OC(=O)/C=C/c2ccc(OCc3ccc(Br)cc3)cc2)cc1 [Compound 3a, (E)-4-Acetamidophenyl 3-(4-((4-bromobenzyl)oxy)phenyl)acrylate] | 52%

tested on: not listed separately; assay: Lipophilicity as RM values by RP-TLC; type: physicochemical; conditions: methanol/water 70/30, 24 °C, average of at least five measurements
Text: Since lipophilicity is a significant physicochemical property determining distribution, bioavailability, metabolic activity and elimination, we tried to determine experimentally the lipophilicity of the new substances by a RPTLC method as RM values (Table 1) and to compare them with the corresponding theoretically calculated clog p values in n-octanol-buffer. This is considered to be a reliable, fast and convenient method for expressing lipophilicity. Lipophilicity (Table 2), was theoretically calculated as Clog p values in n-octanol-buffer by the CLOGP Programme of Biobyte Corp..
Reversed phase TLC (RP-TLC) was performed on silica gel plates impregnated with 5% (v/v) liquid paraffin in light petroleum ether. The mobile phase was a methanol/water mixture (70/30, v/v). The plates were developed in closed chromatography tanks saturated with the mobile phase at 24 °C. Spots were detected under UV light. RM values were determined from the corresponding Rf values (from five individual measurements) using the equation RM = log [(1/Rf) − 1] (Table 1).

Row | Structure (SMILES) | RM (±S.D.)
22 | CC(=O)Nc1cccc(OC(=O)/C=C/c2cccc(Oc3ccccc3)c2)c1 [Compound 2e, 3-Acetamidophenyl (E)-3-(3-phenoxyphenyl)acrylate] | 0.407 ± 0.015
23 | CC(=O)Nc1ccc(OC(=O)/C=C/c2ccccc2)cc1 [Compound 1a, (E) 4-Acetamidophenyl cinnamate] | −0.725 ± 0.009
24 | CCOC(=O)c1ccc(NC(=O)/C=C/c2cccc(Oc3ccccc3)c2)cc1 [Compound 2h, (E)-Ethyl 4-(3-(3-phenoxyphenyl)acrylamido)benzoate] | 0.399 ± 0.045
25 | Cc1cc(=O)oc2cc(OC(=O)/C=C/c3cccc(Oc4ccccc4)c3)ccc12 [Compound 2d, (E)-4-Methyl-2-oxo-2H-chromen-7-yl 3-(3-phenoxyphenyl)acrylate] | 0.558 ± 0.040
26 | CC(=O)Nc1ccc(OC(=O)/C=C/c2ccc(OCc3ccc(Br)cc3)cc2)cc1 [Compound 3a, (E)-4-Acetamidophenyl 3-(4-((4-bromobenzyl)oxy)phenyl)acrylate] | −0.24 ± 0.009

target: T2, soybean lipoxygenase (Glycine max, UniProt P08170); assay: Soybean lipoxygenase inhibition in vitro; type: biochemical; conditions: not given
T2 construct: purchased Sigma Chemical, Co. (St. Louis, MO, USA)
T2 sequence (P08170 1-839): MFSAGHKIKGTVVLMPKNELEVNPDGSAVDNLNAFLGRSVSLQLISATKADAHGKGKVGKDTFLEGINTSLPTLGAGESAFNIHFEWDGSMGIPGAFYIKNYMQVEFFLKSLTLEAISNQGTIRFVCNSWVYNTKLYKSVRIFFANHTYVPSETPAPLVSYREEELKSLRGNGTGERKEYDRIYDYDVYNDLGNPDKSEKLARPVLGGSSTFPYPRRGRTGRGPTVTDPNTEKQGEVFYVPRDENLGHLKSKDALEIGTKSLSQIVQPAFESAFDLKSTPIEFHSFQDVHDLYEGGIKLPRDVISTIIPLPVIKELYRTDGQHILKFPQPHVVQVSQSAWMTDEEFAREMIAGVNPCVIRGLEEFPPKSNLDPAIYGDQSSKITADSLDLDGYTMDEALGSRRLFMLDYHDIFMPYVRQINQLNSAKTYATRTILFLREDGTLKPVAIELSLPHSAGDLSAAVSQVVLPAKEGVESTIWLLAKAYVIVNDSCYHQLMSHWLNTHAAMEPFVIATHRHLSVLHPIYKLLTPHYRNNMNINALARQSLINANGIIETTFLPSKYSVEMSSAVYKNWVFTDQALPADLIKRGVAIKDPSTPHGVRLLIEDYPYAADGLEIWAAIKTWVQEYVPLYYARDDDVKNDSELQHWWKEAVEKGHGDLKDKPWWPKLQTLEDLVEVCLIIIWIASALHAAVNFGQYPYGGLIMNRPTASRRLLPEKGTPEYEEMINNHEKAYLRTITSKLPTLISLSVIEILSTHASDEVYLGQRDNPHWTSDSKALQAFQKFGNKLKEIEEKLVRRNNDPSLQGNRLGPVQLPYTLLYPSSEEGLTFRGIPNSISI
Protocol: DMSO solution of the tested compound was incubated with sodium linoleate (0.1 mM) and 0.2 mL of soybean lipoxygenase solution (1/9 × 10^−4 w/v in saline) in buffer pH 9 (tris) and at room temperature. […] The results are given in Table 1 expressed as IC50 values or % inhibition at 100 μM.

Row | Structure (SMILES) | IC50
27 | CCOC(=O)c1ccc(NC(=O)/C=C/c2cccc(Oc3ccccc3)c2)cc1 [Compound 2h, (E)-Ethyl 4-(3-(3-phenoxyphenyl)acrylamido)benzoate] | 100 µM
28 | Cc1cc(=O)oc2cc(OC(=O)/C=C/c3cccc(Oc4ccccc4)c3)ccc12 [Compound 2d, (E)-4-Methyl-2-oxo-2H-chromen-7-yl 3-(3-phenoxyphenyl)acrylate] | 74 µM
29 | CC(=O)Nc1ccc(OC(=O)/C=C/c2ccc(OCc3ccc(Br)cc3)cc2)cc1 [Compound 3a, (E)-4-Acetamidophenyl 3-(4-((4-bromobenzyl)oxy)phenyl)acrylate] | 55 µM

same assay, conditions: sodium linoleate 0.1 mM, tris buffer pH 9, room temperature; read-out: IC50 μM LOX Inh.

Row | IC50 | Structure (SMILES)
30 | 0.34 µM | CC(=O)Nc1cccc(OC(=O)/C=C/c2cccc(Oc3ccccc3)c2)c1 [Compound 2e, 3-Acetamidophenyl (E)-3-(3-phenoxyphenyl)acrylate]
31 | 10 µM | CC(=O)Nc1ccc(OC(=O)/C=C/c2ccccc2)cc1 [Compound 1a, (E) 4-Acetamidophenyl cinnamate]
